Measurements taken from paper PMC3917155 (Journal of medicinal chemistry, 2013).

Tested on: R2(VC)
Assay: cells
Set-up: species or system CHO sublines
Settings: 96 h, read-out: >1000

Row | IC50 | SMILES
1 | > 1000 nM | Nc1nc2[nH]cc(CCCc3ccc(C(=O)N[C@@H](CCC(=O)O)C(=O)O)cc3)c2c(=O)[nH]1 [compound 7]
2 | > 1000 nM | Nc1nc2[nH]cc(CCCCc3ccc(C(=O)N[C@@H](CCC(=O)O)C(=O)O)cc3)c2c(=O)[nH]1 [compound 8]
